Data set [1] concerns the target T1, Human 5-HT6 receptor (Homo sapiens, UniProt P50406).
T1 construct: host or cells: HEK-293
The data set can be described thus: Nova Screen binding assay for human 5-HT6 receptor ([3H]LSD). Conditions: Human recombinant receptor expressed in HEK-293 cells; [3H]LSD 1.5 nM; 60 minutes at 37° C. How it is done:
Nova Screen Binding Assay for Human 5-HT6 Receptor
Pharmacological data Compounds can be tested according to the following the procedures.
Receptor source: Human recombinant expressed in HEK-293 cells
Radioligand: [^3H]LSD (60-80 Ci/mmol)
Final ligand concentration—[1.5 nM]
Non-specific determinant: Methiothepin mesylate—[0.1 μM]
Reference compound: Methiothepin mesylate
Positive control: Methiothepin mesylate
Incubation conditions: Reactions were carried out in 50 mM TRIS HCl (pH 7.4) containing 10 mM MgCl2, 0.5 mM EDTA for 60 minutes at 37° C. The reaction was terminated by rapid vacuum filtration onto glass fiber filters. Radioactivity trapped onto the filters was determined and compared to control values in order to ascertain any interactions of test compound(s) with the cloned serotonin-5HT6 binding site.
Mol. Pharmacol. (43): 320-327 (1993).

The structures appear in SMILES notation.

T1 sequence (P50406 whole entry): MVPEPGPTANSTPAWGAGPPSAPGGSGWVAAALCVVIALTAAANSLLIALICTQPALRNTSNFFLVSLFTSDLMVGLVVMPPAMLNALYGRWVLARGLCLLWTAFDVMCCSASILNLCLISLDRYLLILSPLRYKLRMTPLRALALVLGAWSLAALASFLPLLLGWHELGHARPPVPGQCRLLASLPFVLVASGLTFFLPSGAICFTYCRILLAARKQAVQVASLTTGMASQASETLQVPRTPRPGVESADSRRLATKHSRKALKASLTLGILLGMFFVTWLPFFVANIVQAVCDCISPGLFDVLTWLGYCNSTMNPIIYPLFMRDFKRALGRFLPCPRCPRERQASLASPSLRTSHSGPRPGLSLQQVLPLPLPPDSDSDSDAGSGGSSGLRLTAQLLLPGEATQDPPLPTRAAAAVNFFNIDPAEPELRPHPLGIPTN

Usually melting point stands for the temperature, or range, at which the solid turns liquid. In turn, `CC(C)c1ccc(S(=O)(=O)n2c3c(c4cc(Br)ccc42)CC(N(C)C)CC3)cc1` (stereo not drawn) had a melting point of 152.75 to 154.98 °C.
`CN(C)C1CCc2c(c3cc(Cl)ccc3n2S(=O)(=O)c2ccccc2)C1` (stereo not drawn) returned a melting point of 150 to 155 °C.
For the molecule `Cc1ccc(S(=O)(=O)n2c3c(c4cc(Cl)ccc42)CC(N(C)C)CC3)cc1` (stereo not drawn), the melting point was in the range of 130 to 138 °C.
As usually defined, the IC50 is the concentration that gives 50% inhibition. Usually Ki stands for a dissociation constant, usually derived from enzyme kinetics or from competition with a known ligand. For `CN(C)C1CCc2c(c3ccccc3n2S(=O)(=O)c2ccc(F)cc2)C1` (stereo not drawn) [Example 3, 9-[(4-Fluorobenzenesulphonyl)-2,3,4,9-tetrahydro-1H-carbazol-3-yl]dimethylamine], the melting point lay within 130.2 to 132.8 °C. Further, in data set [1], the IC50 was 0.027 µM and the Ki turned out to be 0.0125 µM.
As for `CN(C)C1CCc2c(c3cc(Br)ccc3n2S(=O)(=O)c2ccc(F)cc2)C1` (stereo not drawn) [Example 11, [6-Bromo-9-(4-fluorobenzenesulphonyl)-2,3,4,9-tetrahydro-1H-carbazol-3-yl]dimethylamine], the melting point fell in the range of 158.1 to 160 °C. Also, in data set [1], the half-maximal inhibitory concentration (IC50) was determined as 0.0202 µM and the Ki is 0.00942 µM.
In the case of `CN(C)C1CCc2c(c3cc(Br)ccc3n2S(=O)(=O)c2ccccc2Br)C1` (stereo not drawn) [Example 14, [6-Bromo-9-(2-bromobenzenesulphonyl)-2,3,4,9-tetrahydro-1H-carbazol-3-yl]dimethylamine], the melting point was in the range of 158.78 to 161.04 °C.
For `CN(C)C1CCc2c(c3cc(Cl)ccc3n2S(=O)(=O)c2ccc(F)cc2)C1` (stereo not drawn) [Example 20, [6-Chloro-9-(4-fluorobenzenesulfonyl)-2,3,4,9-tetrahydro-1H-carbazol-3-yl]dimethylamine], the melting point was 150 to 155 °C.
As for `CN(C)C1CCc2c(c3cc(F)ccc3n2S(=O)(=O)c2ccccc2)C1` (stereo not drawn) [Example 21, [6-Fluoro-9-benzenesulfonyl-2,3,4,9-tetrahydro-1H-carbazol-3-yl]dimethylamine], the melting point was 127.7 to 130.3 °C. In data set [1], the IC50 was 0.0305 µM and the Ki was 0.0157 µM.
Consider `Cc1ccc(S(=O)(=O)n2c3c(c4cc(F)ccc42)CC(N(C)C)CC3)cc1` (stereo not drawn) [Example 22, [6-Fluoro-9-(4-methylbenzenesulfonyl)-2,3,4,9-tetrahydro-1H-carbazol-3-yl]dimethylamine], for which the melting point lay within 148.8 to 153 °C. Further, in data set [1], the IC50 stood at 0.0643 µM and the Ki was determined as 0.0324 µM.
Molecule `CC(C)c1ccc(S(=O)(=O)n2c3c(c4cc(F)ccc42)CC(N(C)C)CC3)cc1` (stereo not drawn) [Example 23, [6-Fluoro-9-(4-isopropylbenzenesulfonyl)-2,3,4,9-tetrahydro-1H-carbazol-3-yl]dimethylamine] came in with a melting point of 95.4 to 103.8 °C. Also, in data set [1], the IC50 came out at 0.0334 µM and the Ki is 0.0155 µM.
In the same order, the values of `CN(C)C1CCc2c(c3cc(F)ccc3n2S(=O)(=O)c2ccc(Br)cc2)C1` (stereo not drawn) [Example 24, [6-Fluoro-9-(4-bromobenzenesulfonyl)-2,3,4,9-tetrahydro-1H-carbazol-3-yl]dimethylamine] are 170.6 to 174.1 °C, 0.0997 µM and 0.0435 µM.
The molecule `CN(C)C1CCc2c(c3cc(F)ccc3n2S(=O)(=O)c2ccc(F)cc2)C1` (stereo not drawn) [Example 25, [6-Fluoro-9-(4-fluorobenzenesulfonyl)-2,3,4,9-tetrahydro-1H-carbazol-3-yl]dimethylamine] registered a melting point of 147.5 to 151.2 °C. In data set [1], the IC50 worked out at 0.0635 µM and the Ki amounted to 0.0328 µM.
Take `COc1ccc2c(c1)c1c(n2S(=O)(=O)c2ccccc2)CCC(N(C)C)C1` (stereo not drawn) [Example 26, [6-Methoxy-9-benzenesulfonyl-2,3,4,9-tetrahydro-1H-carbazol-3-yl]dimethylamine]: in data set [1], the IC50 came out at 0.0108 µM and the Ki was 0.00544 µM.
As to `COc1ccc2c(c1)c1c(n2S(=O)(=O)c2ccc(C)cc2)CCC(N(C)C)C1` (stereo not drawn) [Example 27, [6-Methoxy-9-(4-methylbenzenesulfonyl)-2,3,4,9-tetrahydro-1H-carbazol-3-yl]dimethylamine], the melting point was in the range of 131.8 to 140 °C. For the same molecule, in data set [1], the IC50 was found to be 0.0117 µM and the Ki was found to be 0.00589 µM.
Molecule `COc1ccc2c(c1)c1c(n2S(=O)(=O)c2ccc(Br)cc2)CCC(N(C)C)C1` (stereo not drawn) [Example 29, [6-Methoxy-9-(4-bromobenzenesulfonyl)-2,3,4,9-tetrahydro-1H-carbazol-3-yl]dimethylamine] returned a melting point of 173.2 to 173.8 °C. Also, in data set [1], the concentration for half-maximal inhibition (IC50) came to 0.0289 µM and the Ki came to 0.0151 µM.
Molecule `COc1ccc2c(c1)c1c(n2S(=O)(=O)c2ccc(F)cc2)CCC(N(C)C)C1` (stereo not drawn) [Example 30, [6-Methoxy-9-(4-fluorobenzenesulfonyl)-2,3,4,9-tetrahydro-1H-carbazol-3-yl]dimethylamine] registered a melting point of 160.7 to 163.4 °C. Besides, in data set [1], the IC50 came to 0.0523 µM and the inhibitory constant (Ki) is 0.0243 µM.
`COc1ccc2c(c1)c1c(n2S(=O)(=O)c2cccc(C(F)(F)F)c2)CCC(N(C)C)C1` (stereo not drawn) [Example 31, [6-Methoxy-9-(3-trifluoromethylbenzenesulfonyl)-2,3,4,9-tetrahydro-1H-carbazol-3-yl]dimethylamine]: the melting point was in the range of 144 to 146 °C.
On to `CSc1ccc2c(c1)c1c(n2S(=O)(=O)c2ccc(C)cc2)CCC(N(C)C)C1` (stereo not drawn) [Example 33, [6-Methylthio-9-(4-methylbenzenesulfonyl)-2,3,4,9-tetrahydro-1H-carbazol-3-yl]dimethylamine], for which the melting point was in the range of 105.2 to 115 °C. Further, in data set [1], the IC50 turned out to be 0.0261 µM and the Ki is 0.0138 µM.
For `CSc1ccc2c(c1)c1c(n2S(=O)(=O)c2ccc(F)cc2)CCC(N(C)C)C1` (stereo not drawn) [Example 35], in that order: 148.9 to 156.1 °C, 0.0471 µM and 0.0249 µM.
Molecule `CN(C)C1CCc2c(c3cc(Br)ccc3n2S(=O)(=O)c2cccc(Cl)c2Cl)C1` (stereo not drawn) [Example 39, [6-Bromo-9-(2,3-dichlorobenzenesulphonyl)-2,3,4,9-tetrahydro-1H-carbazol-3-yl]dimethylamine] yielded a melting point of 189 to 192 °C.

(Values after patent publication US8143303B2, “Carbazole derivatives as functional 5-HT6 ligands” (Suven Life Sciences Limited, priority 2005, dated 2012).)
